Source: patent EP3050567B1, “COMPOUND FOR ACTIVATING AMPK AND USES THEREOF” (Energenesis Biomedical Co., Ltd., priority 2013, dated 2015)

Legend:
[1] = tested on: HT29; experiment: Cancer cell growth inhibition assay, HT29; assay type: cell-based; conditions: Homo sapiens, HT-29; HT29 cell proliferation, 72 h, cell counting
Experimental: Human liver hepatocellular carcinoma cell line Hep G2, human breast adenocarcinoma cell line MCF7 and human colon adenocarcinoma grade II cell line HT29 were used to evaluate the effects of adenine on cell proliferation. Those cell lines were obtained from ATCC and were cultured in high-glucose Dulbecco's modified Eagle's medium (DMEM) containing 10% fetal bovine serum (FBS), 4 mM L-glutamine, 2 mM sodium pyruvate and 1% penicillin/streptomycin (Invitrogen GibcoBRL, Carlsbad, Calif., USA) at 37°C under 5% CO2. Cells were plated at 1 × 10^5 per well (6-well plate). Twenty-four hours after plating, cells were treated with indicated concentration of adenine for 72 h and then followed by cell counting. Cells were detached using trypsin-EDTA solution and stained with trypan blue. The living cells were counted using hemocytometer.

[2] = tested on: AMPK; experiment: AMPK activation assay (phospho-AMPK Thr172 western blot) in Hep G2 cells; assay type: cell-based, human; conditions: 30 min
Experimental: (§1) Effects of adenine on AMPK activation were evaluated based on the phosphorylation of AMPK protein upon adenine treatment. Mouse muscle cell C2C12, mouse fibroblast 3T3, human liver carcinoma cell Hep G2, human breast adenocarcinoma cell line MCF7 and human colon adenocarcinoma grade II cell line HT29, human umbilical vein endothelial cell HUVEC, Human acute monocytic leukemiacell THP1, human macrophage cell U937, murine microglia cell BV-2, and mouse neuroblastoma cell Neuro2A and dermal papilla cell were cultured in high-glucose Dulbecco's modified Eagle's medium (DMEM) containing 10% fetal bovine serum (FBS), 4 mM L-glutamine, 2 mM sodium pyruvate and 1% penicillin/streptomycin (Invitrogen GibcoBRL, Carlsbad, Calif., USA) at 37°C, under 5% CO2. Cells were plated at 3 × 10^5 per well in 6-well plates. Twenty-four hours after plating, adenine was added to the culture media as indicated. After 30 min cells were lysed and subject to western blot analysis. Equal amount of protein from each sample was separated by SDS-PAGE and then electroblotted on to PVDF membranes. Membranes were blocked with 3% BSA in PBS for 60 min and incubated with an anti-phospho-AMPK (Thr172) antibody (1:2,000, Cell signaling) or an anti-AMPK antibody (1:2,000, Cell signaling) at 4°C for 16 h followed by the corresponding secondary antibody for 1 h at room temperature (RT). Immunoreactive bands were detected by enhanced chemiluminescence and recorded using Kodak film. The detected signals were scanned and then quantified using TotalLab Quant software (TotalLab).

[3] = tested on: Aβ infusion mice; experiment: Aβ-induced Alzheimer's disease model mice, Morris water maze assay; assay type: in vivo, C57BL/6J mice; conditions: AD mice, daily IP adenine 0.01, 0.1, 5 or 30 mg/kg for 4 weeks, vs control AD mice
Experimental: Aβ25-35 was purchased from Sigma-Aldrich (St. Louis, Missouri). The peptides were dissolved in distilled saline and aggregated by incubation at 37°C for 7 days before injection. C57BL/6J mice were maintained at 22° C under a 12-h light/dark cycle. Adult mice were anesthetized by ketamine (500 mg/kg) and xylazine (100 mg/kg) and placed in a stereotaxic frame. Five nmol of the aggregated Aβ25-35 were injected into the lateral ventricle using a 10 µl Hamilton syringe. The target anterior-posterior (AP), medial-lateral (ML) and dorsoventral coordinates were -0.5 mm, ±1 mm and -2.5 mm relative to the bregma. To evaluate the effect of adenine on neurodegenerative disease, Aβ infusion mice were daily intraperitoneally injected with 0.01, 0.1, 5 or 30 mg/kg bodyweight of adenine or vehicle for 4 weeks. The cognitive functions of these mice were analyzed by using Morris water maze assay after 4 weeks injection. The water maze was performed in a circular pool filled with water and a platform was submerged below the water's surface in the target quadrant for hidden platform test. During the 5-day hidden platform test, mice were randomly placed into starting points of the pool in each daily trial (6 trials per day). […] Mice were allowed to swim in the maze for 60 s and recorded by a video camera. The latency to find the platform and swim paths was analyzed by software.

[4] = tested on: 6-mm full-thickness excisional skin wounds; experiment: Wound healing and scar formation, excisional skin wounds in mice; assay type: in vivo, C57BL/6J mice; conditions: 14 days
Experimental: C57BL/6J mice were maintained at 22°C under a 12-h light/dark cycle. The experiments were performed with 12-week-old mice. After anesthetized by an intraperitoneal injection of ketamine (500 mg/kg) and xylazine (100 mg/kg), 6-mm full-thickness excisional skin wounds was made on the backs of mice using 6-mm skin biopsy punches. Immediately after wounding, 10-1200 µM of adenine or saline alone was applied to the wound bed. The skin wounds were then covered by semipermeable transparent dressing and fixed to the skin. The mice were treated with adenine or vehicle for 14 days and then sacrificed. The scar formation is assessed by Masson's trichrome staining (the tissue was fixed by 4% paraformaldehyde).

[5] = tested on: AMPK; experiment: AMPK activation assay (phospho-AMPK Thr172 western blot) in HT29 cells; assay type: cell-based, human; conditions: 30 min
Experimental: as §1

[6] = tested on: AMPK; experiment: AMPK activation assay (phospho-AMPK Thr172 western blot) in BV-2 cells; assay type: cell-based, murine; conditions: 30 min
Experimental: as §1

[7] = tested on: AMPK; experiment: AMPK activation assay (phospho-AMPK Thr172 western blot) in U937 cells; assay type: cell-based, human; conditions: 30 min
Experimental: as §1

[8] = tested on: TNBS-induced inflammatory bowel disease (IBD) mice model; experiment: TNBS induced inflammation in vivo (relapsing colitis); parameters: species or system C57BL/6J mice; conditions: daily IP adenine 0.01, 0.1, 5 or 30 mg/kg
Experimental: To further evaluate the effects of adenine on inflammatory response, TNBS-induced inflammatory bowel disease (IBD) mice model was used. C57BL/6J mice were maintained at 22° C, under a 12-h light/dark cycle. Relapsing colitis was induced with five escalating doses of TNBS, 0.5 mg, 0.75 mg, 1.0 mg, 1.25 mg, and 1.5 mg, in 50% ethanol were administered respectively for 0.1 mL per mouse weekly. After the third administration of TNBS, daily intraperitoneal injection of adenine (0.01, 0.1, 5 or 30 mg/kg body weight) or saline were given to mice. Two days after the fifth TNBS administration, mice were sacrificed. The inflammatory cytokines including TNF, INFγ and IL-17 from colonic lysates were evaluated by enzyme-linked immunosorbent assays.

[9] = colonic lysates, dose-dependent, vs non-adenine treated mice

Nc1ncnc2nc[nH]c12 [Adenine, adenine]
IC50 [1]: 532 µM | AMPK activation (fold to control) ([2]; adenine 1 microM): 1.1 fold to control | AMPK activation (fold to control) ([2]; adenine 10 microM): 2.1 fold to control | AMPK activation (fold to control) ([2]; adenine 100 microM): 3.3 fold to control | AMPK activation (fold to control) ([2]; adenine 200 microM): 3.8 fold to control | AMPK activation (fold to control) ([2]; adenine 600 microM): 4.2 fold to control | time to find platform (hidden platform test) ([3]; dose-dependent): significantly shorter time | percentage time in target quadrant (probe assay) [3]: higher percentage time | extent of closure ([4]; topical 10-1200 µM adenine on wound bed, dose-dependent, vs control mice): significantly greater | scar width ([4]; topical 10-1200 µM adenine, histological examination, vs vehicle treated wounds): significantly decreased | AMPK activation (fold to control) ([5]; adenine 1 microM): 1.1 fold to control | AMPK activation (fold to control) ([5]; adenine 10 microM): 1.7 fold to control | AMPK activation (fold to control) ([5]; adenine 100 microM): 2.9 fold to control | AMPK activation (fold to control) ([5]; adenine 200 microM): 3.4 fold to control | AMPK activation (fold to control) ([5]; adenine 600 microM): 3.8 fold to control | AMPK activation (fold to control) ([6]; adenine 1 microM): 1.2 fold to control | AMPK activation (fold to control) ([6]; adenine 10 microM): 1.7 fold to control | AMPK activation (fold to control) ([6]; adenine 40 microM): 2.6 fold to control | AMPK activation (fold to control) ([6]; adenine 160 microM): 3.2 fold to control | AMPK activation (fold to control) ([7]; adenine 1 microM): 1.1 fold to control | AMPK activation (fold to control) ([7]; adenine 10 microM): 1.3 fold to control | AMPK activation (fold to control) ([7]; adenine 100 microM): 2.9 fold to control | AMPK activation (fold to control) ([7]; adenine 200 microM): 3.7 fold to control | AMPK activation (fold to control) ([7]; adenine 600 microM): 4.0 fold to control | body weight loss caused by TNBS [8]: rescued the body weight loss | level of IL-17 in colon [8, 9]: significantly reduced | level of INFγ in colon [8, 9]: significantly reduced | level of TNF in colon [8, 9]: significantly reduced
